From patent US20040077674A1, “Mappicine analogs, intermediates in the synthesis of mappicine analogs and methods of synthesis of mappicine analogs” (priority 2002, published 2004)

Tests used:
[1] = molecular target: T1, RNase H activity of HIV reverse transcriptase (Human immunodeficiency virus type 1 group M subtype B, UniProt P03366); experiment: Fluorescence (FRET)-based RNase H assay of HIV reverse transcriptase; type: biochemical, HIV-1; conditions: 10 μM inhibitor concentration, activity in presence / in absence of analog x 100
T1 construct: 2.5 nM of the p51/p66 RT heterodimer in the assay; made in house
Method: Recently, a fluorescence-based assay to perform screens in search of HIV RNase H inhibitors has been developed. The assay, which is carried out in 96-well microplates and is adaptable to robotics, is the first high-throughput screen for RNase H and is described in further detail in the Experimental section. HIV-1 RT and human RNase H were cloned, and thus comparative analysis of inhibitor action could be conducted simultaneously.
The assay for RNase H activity of HIV reverse transcriptase was the fluorescence-based assay described in detail in the Experimental section and discussed in U.S. Provisional Patent Application Serial No. 60/318,359. Assays were carried out in the absence and in the presence of mappicine analogs (10 μM or 20 μM final concentration). The results are reported as % residual activity, which is the RNase H activity of the enzyme in the presence of the mappicine analog divided by the RNase H activity of the enzyme in the absence of the mappicine analog, multiplied by 100. Alternatively, the results are reported as % inhibition, which is calculated as the ratio of the RNase H activity of the enzyme in the presence of the mappicine analog to the enzyme activity in the absence of the mappicine analog, multiplied by 100, and then subtracting this number from 100.
Assay for Ribonuclease H Activity Based on Fluorescence Resonance Energy Transfer (FRET)
Preparation of the Fluorophore-RNA/Quencher-DNA Hybrid Duplex Substrate.
The RNA/DNA hybrid duplex substrate for use in the assay comprises an RNA oligonucleotide of sequence 5′-GAU CUG AGC CUG GGA GCU-3′, modified at the 3′-end with Aminolink-2 and derivatized with fluorescein isothiocyanate, to provide a modified RNA oligonucleotide of the sequence 5′-GAU CUG AGC CUG GGA GCU-fluorescein-3′, annealed to a complementary DNA oligonucleotide of the sequence 5′-AGC TCC CAG GCT CAG ATC-3′ modified at the 5′-end with Aminolink-2 and derivatized with the FRET acceptor DABCYL succinimidyl ester, to provide a modified DNA oligonucleotide of the sequence 5′-DABCYL-AGC TCC CAG GCT CAG ATC-3′.
To prepare the 3′-fluorescein-RNA/5′-DABCYL-DNA hybrid duplex substrate, a known amount of 3′-fluorescein-RNA was dissolved in 20 mM Tris buffer (pH 8.0, 37° C.) to provide a final concentration of 5 μM. Two equivalents of the 5′-DABCYL-DNA oligonucleotide were added, and the mixture was heated to 90° C. for 5 min and cooled slowly to room temperature to allow duplex formation. The positioning of the fluorescein donor at the 3′-end of the RNA oligonucleotide and the DABCYL acceptor at the 5′-end of the DNA oligonucleotide provides a very close proximity of the donor and acceptor that results in a very intense quenching of the fluorescein emission in the intact RNA/DNA hybrid duplex substrate due to the spectral overlap of the fluorescence emission of fluorescein with the absorption spectrum of DABCYL. In addition, DABCYL is non-fluorescent, and thus cannot contribute any light emission. Both of these factors result in a very low background and provide a high signal-to-noise in the assay measurements. The ratio of the donor fluorescence in the absence and in the presence of its quencher is approximately fifteen-fold.
Microplate Assay Protocol for the Measurement of RNase H Activity Using the RNA/IDNA Hybrid Duplex Substrate.
Reaction assay mixtures contained 5 μl of a stock solution of 2.5 μM RNA/DNA hybrid duplex substrate added to 85 μl of assay buffer (50 mM Tris, pH 8.0, 37° C., containing 60 mM KCl and 2.5 mM MgCl2), prepared in the wells of a 96-well fluorescence microtiter plate, and warmed to 37° C. using the temperature control of the SpectraMax Gemini XS microplate spectrofluorometer (Molecular Devices). Reactions were started by the addition of 5 μl of a solution of recombinant HIV-1 reverse transcriptase (usually providing a final concentration of 2.5 nM of the p51/p66 RT heterodimer in the assay), and mixing using the automatic mixing function of the microplate spectrofluorometer. […]

[2] = molecular target: T2, RNA-dependent DNA polymerase activity of HIV reverse transcriptase (Human immunodeficiency virus type 1 group M subtype B, UniProt P03366); experiment: RNA-dependent DNA polymerase activity assay of HIV reverse transcriptase; type: biochemical, HIV-1; conditions: 10 μM inhibitor concentration, activity in presence / in absence of analog x 100
T2 construct: made in house
Method: In separate representative assays, mappicine analogs were tested for their ability to inhibit the RNA-dependent DNA polymerase activity of HIV reverse transcriptase and for their ability to inhibit the RNase H activity of HIV reverse transcriptase. The assay for RNA-dependent DNA polymerase activity is discussed in Borkow, G. et al., “Inhibition of the Ribonuclease H and DNA Polymerase Activities of HIV-1 Reverse Transcriptase by N-(4-tert-Butylbenzoyl)-2-hydroxy-1-naphthaldehyde Hydrazone,” Biochemistry 1997, 36, 3179-3185, a copy of which is attached hereto and the disclosure of which is incorporated herein by reference. Assays were carried out in the absence and in the presence of mappicine analogs (10 μM final concentration). The results are reported as % residual activity, which is the RNA-dependent DNA polymerase activity of the enzyme in the presence of the mappicine analog divided by the RNA-dependent activity of the enzyme in the absence of the mappicine analog, multiplied by 100.

Compound	Residual activity (%) RNase H [1]	Residual activity (%) Polymerase [2]	Residual activity (%) RNase H ([1]; 10 µM)	Residual activity (%) Polymerase ([2]; 10 µM)
Cc1c(C(O)Cc2ccccc2)cc2n(c1=O)Cc1c-2nc2ccccc2c1[Si](C)(C)C(C)(C)C (stereo not shown) [5 (4Aε)]	93%	83%	–	–
CCC(O)c1cc2n(c(=O)c1C)Cc1c-2nc2ccc(F)cc2c1[Si](C)(C)C(C)(C)C (stereo not shown) [5 (4Bα)]	108%	98%	–	–
CCC(=O)c1cc2n(c(=O)c1C)Cc1c-2nc2ccc(F)cc2c1[Si](C)(C)C(C)(C)C [5 (4Bακ)]	77%	42%	–	–
Cc1c(C(O)C(C)(C)C)cc2n(c1=O)Cc1c-2nc2ccc(F)cc2c1[Si](C)(C)C(C)(C)C (stereo not shown) [5 (4Bβ)]	113%	49%	–	–
Cc1c(C(=O)C(C)(C)C)cc2n(c1=O)Cc1c-2nc2ccc(F)cc2c1[Si](C)(C)C(C)(C)C [5 (4Bβκ)]	79%	82%	–	–
Cc1c(C(O)CCC2CCCCC2)cc2n(c1=O)Cc1c-2nc2ccc(F)cc2c1[Si](C)(C)C(C)(C)C (stereo not shown) [5 (4Bδ)]	90%	44%	–	–
Cc1c(C(=O)CCC2CCCCC2)cc2n(c1=O)Cc1c-2nc2ccc(F)cc2c1[Si](C)(C)C(C)(C)C [5 (4Bδκ)]	96%	56%	–	–
Cc1c(C(O)Cc2ccccc2)cc2n(c1=O)Cc1c-2nc2ccc(F)cc2c1[Si](C)(C)C(C)(C)C (stereo not shown) [5 (4Bε)]	89%	61%	–	–
CCC(O)c1cc2n(c(=O)c1C)Cc1c-2nc2ccc(C)cc2c1[Si](C)(C)C(C)(C)C (stereo not shown) [5 (4Cα)]	91%	94%	–	–
CCC(=O)c1cc2n(c(=O)c1C)Cc1c-2nc2ccc(C)cc2c1[Si](C)(C)C(C)(C)C [5 (4Cακ)]	90%	52%	–	–
Cc1ccc2nc3c(c([Si](C)(C)C(C)(C)C)c2c1)Cn1c-3cc(C(O)C(C)(C)C)c(C)c1=O (stereo not shown) [5 (4Cβ)]	94%	67%	–	–
Cc1ccc2nc3c(c([Si](C)(C)C(C)(C)C)c2c1)Cn1c-3cc(C(=O)C(C)(C)C)c(C)c1=O [5 (4Cβκ)]	65%	67%	–	–
Cc1ccc2nc3c(c([Si](C)(C)C(C)(C)C)c2c1)Cn1c-3cc(C(O)CCC2CCCCC2)c(C)c1=O (stereo not shown) [5 (4Cδ)]	109%	61%	–	–
Cc1ccc2nc3c(c([Si](C)(C)C(C)(C)C)c2c1)Cn1c-3cc(C(=O)CCC2CCCCC2)c(C)c1=O [5 (4Cδκ)]	96%	52%	–	–
CCC(O)c1cc2n(c(=O)c1C)Cc1c-2nc2ccc(OC)cc2c1[Si](C)(C)C(C)(C)C (stereo not shown) [5 (4Dα)]	79%	77%	–	–
CCC(=O)c1cc2n(c(=O)c1C)Cc1c-2nc2ccc(OC)cc2c1[Si](C)(C)C(C)(C)C [5 (4Dακ)]	77%	80%	–	–
COc1ccc2nc3c(c([Si](C)(C)C(C)(C)C)c2c1)Cn1c-3cc(C(O)C(C)(C)C)c(C)c1=O (stereo not shown) [5 (4Dβ)]	91%	47%	–	–
COc1ccc2nc3c(c([Si](C)(C)C(C)(C)C)c2c1)Cn1c-3cc(C(=O)C(C)(C)C)c(C)c1=O [5 (4Dβκ)]	97%	64%	–	–

Compound	Residual activity (%) RNase H [1]	Residual activity (%) Polymerase [2]	Residual activity (%) RNase H ([1]; 10 µM)	Residual activity (%) Polymerase ([2]; 10 µM)
COc1ccc2nc3c(c([Si](C)(C)C(C)(C)C)c2c1)Cn1c-3cc(C(O)CCC2CCCCC2)c(C)c1=O (stereo not shown) [5 (4Dδ)]	87%	51%	–	–
COc1ccc2nc3c(c([Si](C)(C)C(C)(C)C)c2c1)Cn1c-3cc(C(=O)CCC2CCCCC2)c(C)c1=O [5 (4Dδκ)]	83%	50%	–	–
COc1ccc2nc3c(c([Si](C)(C)C(C)(C)C)c2c1)Cn1c-3cc(C(O)Cc2ccccc2)c(C)c1=O (stereo not shown) [5 (4Dε)]	76%	49%	–	–
CCC(O)c1cc2n(c(=O)c1C)Cc1c-2nc2ccccc2c1[Si](C)(C)C (stereo not shown) [5 (5Aα)]	–	–	93%	32%
CCC(=O)c1cc2n(c(=O)c1C)Cc1c-2nc2ccccc2c1[Si](C)(C)C [5 (5Aακ)]	103%	91%	–	–
Cc1c(C(O)C(C)(C)C)cc2n(c1=O)Cc1c-2nc2ccccc2c1[Si](C)(C)C (stereo not shown) [5 (5Aβ)]	77%	103%	–	–
Cc1c(C(=O)C(C)(C)C)cc2n(c1=O)Cc1c-2nc2ccccc2c1[Si](C)(C)C [5 (5Aβκ)]	97%	47%	–	–
Cc1c(C(O)CCC2CCCCC2)cc2n(c1=O)Cc1c-2nc2ccccc2c1[Si](C)(C)C (stereo not shown) [5 (5Aδ)]	78%	83%	–	–
Cc1c(C(=O)CCC2CCCCC2)cc2n(c1=O)Cc1c-2nc2ccccc2c1[Si](C)(C)C [5 (5Aδκ)]	75%	90%	–	–
Cc1c(C(O)Cc2ccccc2)cc2n(c1=O)Cc1c-2nc2ccccc2c1[Si](C)(C)C (stereo not shown) [5 (5Aε)]	93%	54%	–	–
CCC(O)c1cc2n(c(=O)c1C)Cc1c-2nc2ccc(F)cc2c1[Si](C)(C)C (stereo not shown) [5 (5Bα)]	105%	82%	–	–
CCC(=O)c1cc2n(c(=O)c1C)Cc1c-2nc2ccc(F)cc2c1[Si](C)(C)C [5 (5Bακ)]	89%	74%	–	–
Cc1c(C(O)C(C)(C)C)cc2n(c1=O)Cc1c-2nc2ccc(F)cc2c1[Si](C)(C)C (stereo not shown) [5 (5Bβ)]	102%	74%	–	–
Cc1c(C(=O)C(C)(C)C)cc2n(c1=O)Cc1c-2nc2ccc(F)cc2c1[Si](C)(C)C [5 (5Bβκ)]	100%	63%	–	–
Cc1c(C(O)CCC2CCCCC2)cc2n(c1=O)Cc1c-2nc2ccc(F)cc2c1[Si](C)(C)C (stereo not shown) [5 (5Bδ)]	103%	78%	–	–
Cc1c(C(=O)CCC2CCCCC2)cc2n(c1=O)Cc1c-2nc2ccc(F)cc2c1[Si](C)(C)C [5 (5Bδκ)]	78%	46%	–	–
Cc1c(C(O)Cc2ccccc2)cc2n(c1=O)Cc1c-2nc2ccc(F)cc2c1[Si](C)(C)C (stereo not shown) [5 (5Bε)]	88%	49%	–	–
